The subject of the assay is INS-1 832/13 cells. The experiment in a line: Actin staining (phalloidin) in INS-1 832/13 cells. Format: cell-based, rat. Particulars: 10^-7M CARTp55-102, 24 h, n = 6. The method, then:
INS-1 832/13 cells (a rat insulinoma cell line of male origin) were cultured in RPMI 1640 medium (Sigma Aldrich, St. Louis, MO) containing 2 g/L D-glucose, supplemented with 10% FBS, 10 mM HEPES, 1 mM sodium pyruvate and 50 μM β-mercaptoethanol (Sigma Aldrich) in a humidified atmosphere (37°C, 5% CO2). For investigations of actin architecture, INS-1 832/13 cells were seeded in 8-well chamber slides (Sarstedt) and transfected as described below before being fixed, permeabilized and stained with phalloidin (Phalloidin-iFluor488, Abcam, Cambridge, UK) for 60 min. Nuclei were counter-stained with DAPI and F-actin was visualized using Phalloidin-iFluor488 (Abcam). Phalloidin staining was performed for 60 min at a dilution of 1:1000 (in PBS +0.25% Triton X-100). Phalloidin intensity was quantified using the ImageJ software.

Entries after “also recorded” stand apart in the source; their conditions may differ. Where no end group is shown, it is not given here.

Turning to “CARTp55-102: Rat, mouse CARTp55-102 (Phoenix Pharmaceuticals, Cat#003-62); human form Cat#003-60; cocaine- and amphetamine-regulated transcript peptide (IPIYEKKYGQVPMCDAGEQCAVRKGARIGKLCDCPRGTSCNSFLLKCL; ends and bridges not checked; cysteine pairing not given here)”, the “Effect of CARTp on actin staining in Gpr162 KD cells” value runs as follows: (listed as CART) “near-complete abolishment”; (listed as CARTp) “without effect; also recorded: lost in Gpr162 KD cells”. Further, the “Increase in actin staining” value (control cells, phalloidin) is reported as “approximately 2 -fold”.
